Data on 1 molecule can be found in patent publication US4808517A (priority 1985, dated 1989).

The subject of the experiment is submitochondrial particles. Format: biochemical.

Regarding `Oc1c(Cl)c(Cl)c(Cl)c(Cl)c1Cl` [Pentachlorophenol], the “Inhibition of maximum NADH concentration” value is 39%.
